Measurements published in patent publication US20150316548A1, “PROGRANULIN AS MARKER FOR AUTOIMMUNE DISORDERS” (UNIVERSITAET DES SAARLANDES, priority 2012, published 2015).
“Also recorded” adds a separate entry of the source.

Legend:
[1] = system: hyperphosphorylation of progranulin at Ser81 in lymphoblastoid cell lines (LCL); experiment: Kinase inhibitors added to cultured lymphoblastoid cell lines (LCL), progranulin isoforms read by IEF and immunoblot; assay type: cell-based, human; conditions: for hyperphosphorylated progranulin isoform in IEF: LCL culture
Experimental: Lymphoblastoid cell lines (LCLs) were established by infection of PBMCs with EBV as described before.
(§1) Isoelectric focusing was performed as described before. In short, whole blood cell extracts or extracts of LCLs were washed and treated with lysis buffer (8 M urea, 0.1 M NaH2PO4, 0.01 M Tris HCl, 0.1% NP40). Following to this, isoelectric focusing was performed (pH 3-10, Invitrogen) according to the manufacturer's protocol (1 hour 100 V, 1 hour 200 V, and 30 minutes 500 V). After semi-dry blotting on PVDF membranes (450 mA, 24V, 1 hour), patient's plasma was used for immunodetection of progranulin from whole blood cell lysates and murine anti-FLAG antibody (Sigma) was used at a dilution of 1:2,000 for immunodetection of progranulin from LCL lysates. These LCLs had been previously transfected with FLAG-tagged progranulin in pRTS. The membrane was blocked in TST/milk buffer (10% milk in 10 mM Tris/HCl, pH 7.5, 150 mM NaCl, 0.1% [v/v] Tween 20) overnight, washed, and incubated for 1 hour with plasma in TST or murine anti-FLAG-antibody. After 3 washings in TST, the membranes were incubated for 1 hour at room temperature with PDX-labeled goat anti-human IgG Ab (Dianova) diluted 1:5,000 or PDX-labeled anti-mouse IgG Ab (Biorad) in TST, subsequently washed in TST followed by ECL development. To perform IEF on different cell fractions, PBMCs and granulocytes were isolated by density double gradient centrifugation (Histopaque-1077 and -1119, Sigma). Monocytes, B-cells and T-cells were sorted with CD14, CD19 and CD3. Mucosa cells were obtained by swab from the oral cavities of patients and controls.
Stable transfected lymphoblastoid cell lines were cultured at 2×10e6 cells/ml in the presence of selected inhibitory compounds as indicated to narrow down the number of candidate kinases responsible for hyperphosphorylation at Ser81. […] After 3 days, cells were removed and analyzed by isoelectric focusing (IEF) and immunoblot detection. After the identification of PKC as the responsible kinase for the phosphorylation of serine 81, the same procedure was repeated with other selected inhibitory compounds to identify the subclass of PKC. The selected inhibitory compounds for the identification of the PKC subunit were: Staurosporin at […], 15 nM and 30 nM. Bisindolylmaleimide I (BIM I) at 1 nM, 5 nM, 10 nM and 20 nM, Rottlerin at 5 μM, 10 μM, 40 μM and 100 μM and the PKCβ-inhibitor at a concentration of 5 nm specifically for PKCβ-II and at a concentration of 21 nm for PKCβ-I and PKCβ-II.

[2] = system: hyperphosphorylated progranulin isoform; experiment: Treatment of sera / cell lysates with alkaline phosphatase before IEF; assay type: biochemical, human; conditions: samples of progranulin-antibody positive patients
Experimental: Treatment of whole blood cell lysates or LCL lysates with alkaline phosphatase was conducted in principal as previously described. FastAP thermo sensitive alkaline phosphatase (Fermentas) was used. In short LCLs were washed 3 times with PBS. The lysis was performed in a buffer of 10 mM Tris HCl pH 8 for 1 h at 4° C. Following to this the supplied FastAP-Buffer (10×Fast AP-Buffer: 100 mM Tris-HCl, pH 8.0, 50 mM MgCl2, 1 M KCl, 0.2% Triton X-100 and 1 mg/ml BSA) was added to the cell lysate. For 0.1 mg/ml lysed protein extract, 10 units of FastAP were utilized. After 1 h at 37° C., the alkaline phosphatase reaction was stopped by the addition of 50 mM EDTA. Equal volumes of sample and loading buffer were mixed, followed by IEF and immuno-detection.

[3] = system: phosphatase for progranulin's phosphorylated Ser81 in LCLs; experiment: Phosphatase inhibitors added to cultured LCLs, progranulin isoforms read by IEF; assay type: cell-based, human
Description: FIG. 14 a) to b): Identification of PP1 as the responsible phosphatase. a) Phosphatase inhibitors at specific concentrations or DMSO only as control were administrated for three days to cultured LCLs derived from a healthy donor and from a patient with hyperphosphorylated progranulin. Subsequently LCL lysates were subjected to IEF. Lanes (1) and (4) show the IEF of the LCL from a healthy control and a progranulin-antibody positive patient cultured without phosphatase inhibitors. […] The further lanes show the administration of following phosphatase inhibitors to LCL-lysates from healthy controls (top) and from progranulin-antibody positive patients (bottom): 1) DMSO, 2) of serine/threonine inhibitor cocktail 1, 3) of NIPP1 at 10 pM, 4) of okadaic acid at 10 nM, 5) of okadaic acid at 0.1 nM and of okadaic acid at 500 nM.
as §1
To identify the responsible phosphatase for progranulin's phosphorylated Ser81 a panel of different phosphatase inhibitors was administered at specific concentrations to the cultured LCLs, which had been obtained from progranulin-antibody positive patients and from healthy controls with the aim to inhibit particular groups of phosphatases. This panel consisted of serine/threonine phosphatase inhibitor cocktail, tyrosine phosphatase inhibitor, okadaic acid at 500 nM, 10 nM, 0.1 nM and NIPP1 at 10 pM. Following to this, IEFs of the lysates of these LCLs were performed to check for possible differences in the phosphorylation state.

[4] = in vivo; cited from earlier work

O=C1NC(=O)C(c2cn(CCCn3ccnc3)c3ccccc23)=C1Nc1ccccc1 [PKCβ-inhibitor]
hyperphosphorylated progranulin isoform in IEF ([1]; inhibitor at 21 nM): led to the disappearance of the hyperphosphorylated isoform

CC(=O)c1c(O)c(C)c(O)c(Cc2c(O)c3c(c(C(=O)/C=C/c4ccccc4)c2O)OC(C)(C)C=C3)c1O [Rottlerin]
hyperphosphorylated progranulin isoform in IEF ([1]; inhibitor at 5 μM): could not inhibit the phosphorylation of Ser81 | hyperphosphorylated progranulin isoform in IEF ([1]; inhibitor at 10 μM): could not inhibit the phosphorylation of Ser81 | hyperphosphorylated progranulin isoform in IEF ([1]; inhibitor at 40 μM): could not inhibit the phosphorylation of Ser81 | hyperphosphorylated progranulin isoform in IEF ([1]; inhibitor at 100 μM): could not inhibit the phosphorylation of Ser81 | hyperphosphorylated progranulin isoform in IEF ([1]; inhibitor at different concentrations): not possible to inhibit the responsible kinase

CN(C)CCCn1cc(C2=C(c3c[nH]c4ccccc34)C(=O)NC2=O)c2ccccc21 [Bisindolylmaleimide I]
hyperphosphorylated progranulin isoform in IEF ([1]; inhibitor at 1 nM): didn't inhibit the hyperphosphorylation | hyperphosphorylated progranulin isoform in IEF ([1]; inhibitor at 5 nM): didn't inhibit the hyperphosphorylation | hyperphosphorylated progranulin isoform in IEF ([1]; inhibitor at 10 nM): didn't inhibit the hyperphosphorylation | hyperphosphorylated progranulin isoform in IEF ([1]; inhibitor at 20 nM): the hyper-phosphorylated isoform disappeared | hyperphosphorylated progranulin isoform in IEF ([1]; inhibitor at 20 nM, listed as Bis-indolyl-maleimide I): led to the disappearance of the hyperphosphorylated isoform

alkaline phosphatase
additional (aberrantly charged) progranulin isoform in IEF after pretreatment [2]: disappearance of the additional progranulin isoform; also recorded: had lost the aberrantly charged progranulin isoform

C=C1[C@@H](O)[C@@H]2O[C@]3(CC[C@H](/C=C/[C@@H](C)[C@@H]4CC(C)=C[C@@]5(O[C@H](C[C@@](C)(O)C(=O)O)CC[C@H]5O)O4)O3)CC[C@H]2O[C@@H]1[C@@H](O)C[C@H](C)[C@H]1O[C@@]2(CCCCO2)CC[C@H]1C [okadaic acid]
normal and hyperphosphorylated progranulin isoforms in IEF ([3]; 0.1 nM (specific for PP2A), listed as ocadaic acid): didn't change the phosphorylation state | normal and hyperphosphorylated progranulin isoforms in IEF ([3]; 10 nM (specific for PP1)): led to the appearance of the hyperphosphorylated progranulin isoform and the disappearance of the normal progranulin isoform | normal and hyperphosphorylated progranulin isoforms in IEF ([3]; 10 nM (specific for PP1), listed as Ocadaic acid): led to the appearance of the hyperphosphorylated progranulin isoform | normal and hyperphosphorylated progranulin isoforms in IEF ([3]; 500 nM (0.5 μM)): led to the appearance of the hyperphosphorylated progranulin isoform and the disappearance of the normal progranulin isoform | normal and hyperphosphorylated progranulin isoforms in IEF ([3]; 500 nM (0.5 μM), listed as Ocadaic acid): led to the appearance of the hyperphosphorylated progranulin isoform

TNF-α
half-life [4]: about 20 min

CN[C@@H]1C[C@H]2O[C@@](C)([C@@H]1OC)n1c3ccccc3c3c4c(c5c6ccccc6n2c5c31)C(=O)NC4 [Staurosporin]
electrical charge of the normal progranulin isoform in IEF ([1]; 2.5 pM, LCL of progranulin-antibody positive patients and of healthy controls): slight shift of the band of the normal progranulin isoform towards an electronically less negatively charged isoform | electrical charge of the normal progranulin isoform in IEF ([1]; 5 pM, LCL of progranulin-antibody positive patients and of healthy controls): slight shift of the band of the normal progranulin isoform towards an electronically less negatively charged isoform | electrical charge of the normal progranulin isoform in IEF ([1]; 2.5 μM, LCL of a healthy control): change in the electrical charge of “normal” progranulin appeared as well | electrical charge of the normal progranulin isoform in IEF ([1]; 2.5 μM, LCL of a progranulin-antibody positive patient): change in the electrical charge | electrical charge of the normal progranulin isoform in IEF ([1]; 5 μM, LCL of a healthy control): change in the electrical charge of “normal” progranulin appeared as well | electrical charge of the normal progranulin isoform in IEF ([1]; 5 μM, LCL of a progranulin-antibody positive patient): change in the electrical charge | hyperphosphorylated progranulin isoform in IEF ([1]; inhibitor at 10 nM): led only to the disappearance of the hyperphosphorylated progranulin isoform | hyperphosphorylated progranulin isoform in IEF ([1]; inhibitor at 15 nM): wasn't detectable | hyperphosphorylated progranulin isoform in IEF ([1]; inhibitor at 30 nM): wasn't detectable; also recorded: led only to the disappearance of the hyperphosphorylated progranulin isoform | hyperphosphorylated progranulin isoform in IEF ([1]; inhibitor at 2.5 μM): disappearance of the hyperphosphorylated progranulin isoform | hyperphosphorylated progranulin isoform in IEF ([1]; inhibitor at 5 μM): disappearance of the hyperphosphorylated progranulin isoform

O=c1oc2c(O)c(O)cc3c(=O)oc4c(O)c(O)cc1c4c23 [Ellagic Acid]
electrical charge of the normal progranulin isoform in IEF ([1]; 10 pM, LCL of progranulin-antibody positive patients and of healthy controls): slight shift of the band of the normal progranulin isoform towards an electronically less negatively charged isoform | electrical charge of the normal progranulin isoform in IEF ([1]; 50 μM, LCL of a healthy control): change in the electrical charge of “normal” progranulin appeared as well | electrical charge of the normal progranulin isoform in IEF ([1]; 50 μM, LCL of a progranulin-antibody positive patient): change in the electrical charge | hyperphosphorylated progranulin isoform in IEF ([1]; inhibitor at 50 μM): disappearance of the hyperphosphorylated progranulin isoform

B1: NIPP1: phosphatase inhibitor, at 10 pM specific for PP1 (protein, UniProt Q12972 1-351, looked up)
Nuclear inhibitor of protein …: MAAAANSGSSLPLFDCPTWAGKPPPGLHLDVVKGDKLIEKLIIDEKKYYLFGRNPDLCDFTIDHQSCSRVHAALVYHKHLKRVFLIDLNSTHGTFLGHIRLEPHKPQQIPIDSTVSFGASTRAYTLREKPQTLPSAVKGDEKMGGEDDELKGLLGLPEEETELDNLTEFNTAHNKRISTLTIEEGNLDIQRPKRKRKNSRVTFSEDDEIINPEDVDPSVGRFRNMVQTAVVPVKKKRVEGPGSLGLEESGSRRMQNFAFSGGLYGGLPPTHSEAGSQPHGIHGTALIGGLPMPYPNLAPDVDLTPVVPSAVNMNPAPNPAVYNPEAVNEPKKKKYAKEAWPGKKPTPSLLI
normal and hyperphosphorylated progranulin isoforms in IEF ([3]; 10 pM (specific for PP1)): led to the appearance of the hyperphosphorylated progranulin isoform and the disappearance of the normal progranulin isoform
